Drawing on US20100234417A1, “THYROTROPIN RELEASING HORMONE RECEPTOR-OREXIN RECEPTOR HETERO-DIMERS/-OLIGOMERS” (DIMERIX BIOSCIENCE PTY LTD., priority 2006, published 2010), this text covers eBRET signal for one substance.

Ends that are not written are not given here.

Assay [1] relates to TRHR335 with TRHR. The experiment in a line: eBRET: TRHR335/Rluc + EGFP/barr1 + TRHR as IG3. Particulars: FIG. 9. Format: cell-based. The text has this:
Briefly, referring to FIGS. 1 to 3, the IGs are provided in the form of the two receptors (TRHR and OxR). One of the two is attached to an RC (IG1-RC1, IG3). A second IG (IG2-RC2) is derived from a molecule that interacts with the receptors upon ligand binding (e.g. beta-arrestin, or a mutant thereof). The detection system not only detects the formation of the TRHR-OxR heterodimer but can distinguish whether a ligand or drug acts as an agonist, partial agonist, antagonist, inverse agonist or partial inverse agonist at the receptor hetero-dimer.
Cells were seeded in 6-well plates at a density of approximately 630,000 cells/well (HEK293FT) or approximately 150,000 cells/well (COS-7) and maintained at 37° C., 5% CO2 in Complete Media (DMEM containing 0.3 mg/ml glutamine, 100 IU/ml penicillin and 100 μg/ml streptomycin (Gibco)) supplemented with 10% fetal calf serum (FCS; Gibco). […] BRET measurements were taken at 37° C. using the Victor Light plate reader with Wallac 1420 software (Perkin-Elmer). Filtered light emissions were sequentially measured for 3-5 s in each of the ‘donor wavelength window’ (400-475 nm) and ‘acceptor wavelength window’ (>500 nm for EGFP or 520-540 nm for EYFP, Topaz (TYFP) or Venus). […] Unless otherwise stated, BRET signals were measured in 96-well microplates. […]

Assay [2] concerns thyrotropin releasing hormone receptor/orexin receptor hetero-dimer/-oligomer (TRHR with OxR1). Nature of the assay: eBRET: TRHR/Rluc + barr2/Venus + OxR1 as IG3 in HEK293 cells. Format: cell-based. The note with it: TRHR/Rluc + barr2/Venus + OxR1; 10^−6M OxA; FIG. 6. On the procedure:
Briefly, referring to FIGS. 1 to 3, the IGs are provided in the form of the two receptors (TRHR and OxR). One of the two is attached to an RC (IG1-RC1, IG3). A second IG (IG2-RC2) is derived from a molecule that interacts with the receptors upon ligand binding (e.g. beta-arrestin, or a mutant thereof).
Cells were seeded in 6-well plates at a density of approximately 630,000 cells/well (HEK293FT) or approximately 150,000 cells/well (COS-7) and maintained at 37° C., 5% CO2 in Complete Media (DMEM containing 0.3 mg/ml glutamine, 100 IU/ml penicillin and 100 μg/ml streptomycin (Gibco)) supplemented with 10% fetal calf serum (FCS; Gibco). Transient transfections were carried out 24 h after seeding using GeneJuice (Novagen) or Metafectene (Biontex) according to manufacturer instructions. 24 h post-transfection, cells were washed with PBS, detached using 0.05% trypsin/0.53 mM EDTA, resuspended in HEPES-buffered phenol red free Complete Media containing 5% FCS and added to a poly-L-lysine-coated white microplate (Nunc). 48 h post-transfection, eBRET assays were carried out following pre-incubation of cells with EnduRen™ (Promega) at a final concentration of 30-40 μM, at 37° C., 5% CO2 for 2 h. For original BRET studies, the HEPES-buffered phenol red free Complete Media was replaced with PBS and coelenterazine h (Molecular Probes) added to a final concentration of 5 μM immediately prior to commencing the assay. […] Filtered light emissions were sequentially measured for 3-5 s in each of the ‘donor wavelength window’ (400-475 nm) and ‘acceptor wavelength window’ (>500 nm for EGFP or 520-540 nm for EYFP, Topaz (TYFP) or Venus). The BRET signal observed between interacting proteins is normalized by subtracting the background BRET ratio. […] In this case, data are shown as ‘fluorescence/luminescence’ being the ratio of light emission through the ‘acceptor wavelength window’ over the 400-475 nm emission for a particular cell sample. Unless otherwise stated, BRET signals were measured in 96-well microplates. […]

Take “OxA: orexin A; known orexin receptor modulator, used as IG3 ligand (modulator) (QPLPDCCRQKTCSCRLYELLHGAGNHAAGILTL; ends and bridges not checked; cysteine pairing not given here; UniProt O43612 34-66, looked up)”: the eBRET signal result in assay [1] is “no eBRET signal above baseline”; in assay [2], “small eBRET signal”.
